Results taken from patent US8840866B2, “Styrylpyridine derivatives and their use for binding and imaging amyloid plaques” (The Trustees of the University of Pennsylvania, priority 2006, dated 2014).

Experiment: Organ distribution in normal ICR mice after iv injection of radiolabeled tracer
Format: in vivo
Conditions: [125I]-labeled tracer
Procedure: The mice (n=3 for each time point) were sacrificed by cervical dislocation at designated time-points post injection. The organs of interest were removed and weighed, and the radioactivity was counted with an automatic gamma counter. The percentage dose per organ was calculated by a comparison of the tissue counts to suitably diluted aliquots of the injected material. The total activity of the blood was calculated under the assumption that it is 7% of the total body weight. The % dose/g of samples was calculated by comparing the sample counts with the count of the diluted initial dose.

| SMILES | Biodistribution: Blood (2 min) [% dose/g] | Biodistribution: Brain (2 min) [% dose/g] | Biodistribution: Heart (2 min) [% dose/g] | Biodistribution: Kidney (2 min) [% dose/g] | Biodistribution: Liver (2 min) [% dose/g] | Biodistribution: Lung (2 min) [% dose/g] | Biodistribution: Muscle (2 min) [% dose/g] | Biodistribution: Skin (2 min) [% dose/g] | Biodistribution: Spleen (2 min) [% dose/g] | Biodistribution: Thyroid (2 min) [% dose/g] | Biodistribution: Blood (30 min) [% dose/g] | Biodistribution: Brain (30 min) [% dose/g] | Biodistribution: Heart (30 min) [% dose/g] | Biodistribution: Kidney (30 min) [% dose/g] | Biodistribution: Liver (30 min) [% dose/g] | Biodistribution: Lung (30 min) [% dose/g] | Biodistribution: Muscle (30 min) [% dose/g] | Biodistribution: Skin (30 min) [% dose/g] | Biodistribution: Spleen (30 min) [% dose/g] | Biodistribution: Thyroid (30 min) [% dose/g] | other results |
| --- | --- | --- | --- | --- | --- | --- | --- | --- | --- | --- | --- | --- | --- | --- | --- | --- | --- | --- | --- | --- | --- |
| CN(C)c1ccc(/C=C/c2cnc(OCCOCCOCCF)c(I)c2)cc1 [[^125I]13a, (E)-(5-Iodo-6-{2-[2-(2-fluoroethoxy)ethoxy]ethoxy}pyridin-3-yl)-2-(4-dimethylaminophenyl)-ethylene] | 2.70 ± 0.58 | 4.03 ± 0.43 | 12.76 ± 1.24 | 16.62 ± 1.96 | 22.15 ± 4.34 | 10.08 ± 2.15 | 0.90 ± 0.20 | 0.54 ± 0.05 | 4.47 ± 1.28 | 3.89 ± 0.67 | 2.05 ± 0.18 | 1.93 ± 0.18 | 1.63 ± 0.03 | 3.32 ± 0.11 | 9.54 ± 1.30 | 2.50 ± 0.14 | 1.00 ± 0.08 | 1.47 ± 0.26 | 1.42 ± 0.05 | 16.23 ± 11.75 | Biodistribution: Blood (1 hr): 1.65 ± 0.45 % dose/g; Biodistribution: Brain (1 hr): 0.68 ± 0.17 % dose/g; Biodistribution: Heart (1 hr): 0.97 ± 0.16 % dose/g; Biodistribution: Kidney (1 hr): 2.30 ± 0.54 % dose/g; Biodistribution: Liver (1 hr): 5.34 ± 2.22 % dose/g; Biodistribution: Lung (1 hr): 1.62 ± 0.46 % dose/g; Biodistribution: Muscle (1 hr): 0.59 ± 0.13 % dose/g; Biodistribution: Skin (1 hr): 1.59 ± 0.68 % dose/g; Biodistribution: Spleen (1 hr): 0.99 ± 0.47 % dose/g; Biodistribution: Thyroid (1 hr): 24.19 ± 8.26 % dose/g; Biodistribution: Blood (2 hr): 1.45 ± 0.41 % dose/g; Biodistribution: Brain (2 hr): 0.26 ± 0.04 % dose/g; Biodistribution: Heart (2 hr): 0.73 ± 0.17 % dose/g; Biodistribution: Kidney (2 hr): 1.71 ± 0.24 % dose/g; Biodistribution: Liver (2 hr): 5.62 ± 1.31 % dose/g; Biodistribution: Lung (2 hr): 1.33 ± 0.39 % dose/g; Biodistribution: Muscle (2 hr): 0.53 ± 0.08 % dose/g; Biodistribution: Skin (2 hr): 1.23 ± 0.41 % dose/g; Biodistribution: Spleen (2 hr): 0.79 ± 0.27 % dose/g; Biodistribution: Thyroid (2 hr): 60.76 ± 6.09 % dose/g |
| CN(C)c1ccc(/C=C/c2cnc(OCCO)c(I)c2)cc1 [[^125I]16a, (E)-[5-Iodo-6-(2-hydroxyethoxy)pyridin-3-yl]-2-(4-dimethylaminophenyl)-ethylene] | 2.71 ± 0.07 | 5.43 ± 0.85 | 10.24 ± 0.45 | 14.25 ± 1.98 | 19.12 ± 2.68 | 9.41 ± 0.56 | 0.71 ± 0.46 | 0.46 ± 0.13 | 4.40 ± 1.89 | 4.15 ± 0.43 | 2.24 ± 0.38 | 3.56 ± 0.32 | 1.93 ± 0.27 | 4.19 ± 0.45 | 12.38 ± 1.29 | 3.02 ± 0.38 | 1.05 ± 0.20 | 1.18 ± 0.26 | 1.94 ± 0.19 | 11.21 ± 7.88 | Biodistribution: Blood (1 hr): 2.18 ± 0.66 % dose/g; Biodistribution: Brain (1 hr): 1.32 ± 0.00 % dose/g; Biodistribution: Heart (1 hr): 1.12 ± 0.02 % dose/g; Biodistribution: Kidney (1 hr): 2.49 ± 0.33 % dose/g; Biodistribution: Liver (1 hr): 6.22 ± 0.96 % dose/g; Biodistribution: Lung (1 hr): 1.98 ± 0.21 % dose/g; Biodistribution: Muscle (1 hr): 0.55 ± 0.03 % dose/g; Biodistribution: Skin (1 hr): 1.16 ± 0.00 % dose/g; Biodistribution: Spleen (1 hr): 1.32 ± 0.10 % dose/g; Biodistribution: Thyroid (1 hr): 59.13 ± 6.26 % dose/g; Biodistribution: Blood (2 hr): 1.01 ± 0.02 % dose/g; Biodistribution: Brain (2 hr): 0.46 ± 0.05 % dose/g; Biodistribution: Heart (2 hr): 0.62 ± 0.12 % dose/g; Biodistribution: Kidney (2 hr): 1.48 ± 0.20 % dose/g; Biodistribution: Liver (2 hr): 4.87 ± 0.46 % dose/g; Biodistribution: Lung (2 hr): 1.00 ± 0.15 % dose/g; Biodistribution: Muscle (2 hr): 0.22 ± 0.04 % dose/g; Biodistribution: Skin (2 hr): 0.40 ± 0.05 % dose/g; Biodistribution: Spleen (2 hr): 0.80 ± 0.11 % dose/g; Biodistribution: Thyroid (2 hr): 24.81 ± 0.62 % dose/g |
| CNc1ccc(/C=C/c2cnc(OCCOCCOCCF)c(I)c2)cc1 [[^125I]13b, (E)-(5-Iodo-6-{2-[2-(2-fluoroethoxy)ethoxy]ethoxy}pyridin-3-yl)-2-(4-methylaminophenyl)-ethylene] | 4.37 ± 1.07 | 6.22 ± 1.01 | 9.85 ± 1.78 | 9.03 ± 6.81 | 26.24 ± 4.47 | 6.85 ± 0.27 | 1.04 ± 0.25 | 1.48 ± 0.07 | 4.41 ± 1.05 | 5.74 ± 0.42 | 3.83 ± 1.11 | 1.23 ± 0.13 | 2.54 ± 0.37 | 3.40 ± 0.76 | 11.47 ± 2.10 | 3.01 ± 0.96 | 1.11 ± 0.34 | 2.95 ± 0.81 | 2.49 ± 0.75 | 24.09 ± 27.44 | Biodistribution: Blood (1 hr): 2.88 ± 0.28 % dose/g; Biodistribution: Brain (1 hr): 0.62 ± 0.17 % dose/g; Biodistribution: Heart (1 hr): 1.75 ± 0.26 % dose/g; Biodistribution: Kidney (1 hr): 2.81 ± 0.70 % dose/g; Biodistribution: Liver (1 hr): 7.70 ± 1.22 % dose/g; Biodistribution: Lung (1 hr): 2.37 ± 0.29 % dose/g; Biodistribution: Muscle (1 hr): 0.85 ± 0.06 % dose/g; Biodistribution: Skin (1 hr): 2.46 ± 0.16 % dose/g; Biodistribution: Spleen (1 hr): 1.75 ± 0.33 % dose/g; Biodistribution: Thyroid (1 hr): 38.09 ± 6.37 % dose/g; Biodistribution: Blood (2 hr): 2.21 ± 0.73 % dose/g; Biodistribution: Brain (2 hr): 0.26 ± 0.01 % dose/g; Biodistribution: Heart (2 hr): 1.22 ± 0.28 % dose/g; Biodistribution: Kidney (2 hr): 1.86 ± 0.36 % dose/g; Biodistribution: Liver (2 hr): 6.25 ± 1.79 % dose/g; Biodistribution: Lung (2 hr): 1.85 ± 0.74 % dose/g; Biodistribution: Muscle (2 hr): 0.44 ± 0.19 % dose/g; Biodistribution: Skin (2 hr): 1.32 ± 0.41 % dose/g; Biodistribution: Spleen (2 hr): 1.27 ± 0.24 % dose/g; Biodistribution: Thyroid (2 hr): 215.05 ± 74.59 % dose/g |
| CNc1ccc(/C=C/c2cnc(OCCO)c(I)c2)cc1 [[^125I]16b, (E)-[5-Iodo-6-(2-hydroxyethoxy)pyridin-3-yl]-2-(4-methylaminophenyl)-ethylene] | 4.14 ± 0.41 | 8.04 ± 0.82 | 7.16 ± 1.16 | 11.51 ± 1.48 | 20.84 ± 2.38 | 7.43 ± 1.21 | 1.15 ± 0.38 | 0.95 ± 0.09 | 4.08 ± 0.68 | 6.31 ± 1.59 | 3.08 ± 0.35 | 0.88 ± 0.30 | 1.50 ± 0.18 | 3.73 ± 0.75 | 12.57 ± 3.03 | 2.67 ± 0.46 | 0.91 ± 0.06 | 1.86 ± 0.50 | 1.34 ± 0.29 | 17.23 ± 14.23 | Biodistribution: Blood (1 hr): 1.81 ± 0.56 % dose/g; Biodistribution: Brain (1 hr): 0.26 ± 0.03 % dose/g; Biodistribution: Heart (1 hr): 0.88 ± 0.30 % dose/g; Biodistribution: Kidney (1 hr): 2.16 ± 0.08 % dose/g; Biodistribution: Liver (1 hr): 5.62 ± 0.68 % dose/g; Biodistribution: Lung (1 hr): 1.76 ± 0.32 % dose/g; Biodistribution: Muscle (1 hr): 0.42 ± 0.08 % dose/g; Biodistribution: Skin (1 hr): 1.29 ± 0.51 % dose/g; Biodistribution: Spleen (1 hr): 0.87 ± 0.37 % dose/g; Biodistribution: Thyroid (1 hr): 36.69 ± 37.17 % dose/g; Biodistribution: Blood (2 hr): 1.96 ± 0.14 % dose/g; Biodistribution: Brain (2 hr): 0.15 ± 0.02 % dose/g; Biodistribution: Heart (2 hr): 0.76 ± 0.03 % dose/g; Biodistribution: Kidney (2 hr): 1.53 ± 0.20 % dose/g; Biodistribution: Liver (2 hr): 3.41 ± 0.20 % dose/g; Biodistribution: Lung (2 hr): 1.58 ± 0.10 % dose/g; Biodistribution: Muscle (2 hr): 0.38 ± 0.02 % dose/g; Biodistribution: Skin (2 hr): 1.43 ± 0.10 % dose/g; Biodistribution: Spleen (2 hr): 1.08 ± 0.15 % dose/g; Biodistribution: Thyroid (2 hr): 99.88 ± 69.45 % dose/g |
